Measurements as given in publication PMC8026479 (Cancer Chemotherapy and Pharmacology, 2021).

System: CD45+/CD3+ lymphocytes
Test: Ex vivo PHA-stimulated lymphocyte proliferation assay (G1T28-1-01)
Format: in vivo
Conditions: Homo sapiens, 96 mg/m2, 4 h after end of infusion, read-out: maximum mean inhibition of proliferation of CD45+/CD3+ lymphocytes
Description: Healthy male and/or female subjects aged 18–60 years, with a body weight of ≥ 50 kg and a body mass index of 18–32 kg/m^2, were enrolled. […] Following a 1-h exposure to EdU, cells were harvested, processed, and analyzed by flow cytometry to measure the percentage of proliferation through EdU + incorporation in CD45 + /CD3 + cells (T lymphocytes).
Two bone marrow samples (one pre-dose and one at 32 h post-dose) were excluded from analysis owing to contamination with peripheral blood. c Relative percentage of total bone marrow cells in the S phase at 24 and 32 h post-trilaciclib dose (n = 10). Data shown are mean ± standard deviation.

CN1CCN(c2ccc(Nc3ncc4cc5n(c4n3)C3(CCCCC3)CNC5=O)nc2)CC1 [trilaciclib]
inhibition at 96 mg/m2: 37.2%
